The target of one assay is T1, kinase domain of cKIT (Homo sapiens, UniProt P10721).
T1 construct: The kinase domain of cKIT was assayed in 50 mM Hepes; purchased Upstate 14-559
In words: Inhibition of cKIT kinase signaling in an in vitro biochemical assay (alphascreen). The following applies: tested at about 1 μM, read-out: cKit percent inhibition.

The target of assay [1] is T2, cytoplasmic domain of the human CSF-1R (Homo sapiens, UniProt P07333).
T2 construct: Recombinant protein corresponding to the cytoplasmic domain of the human CSF-1R; purchased Invitrogen Corporation, Carlsbad, Calif; PV3249
T2 sequence (P07333 539-972 limits assumed): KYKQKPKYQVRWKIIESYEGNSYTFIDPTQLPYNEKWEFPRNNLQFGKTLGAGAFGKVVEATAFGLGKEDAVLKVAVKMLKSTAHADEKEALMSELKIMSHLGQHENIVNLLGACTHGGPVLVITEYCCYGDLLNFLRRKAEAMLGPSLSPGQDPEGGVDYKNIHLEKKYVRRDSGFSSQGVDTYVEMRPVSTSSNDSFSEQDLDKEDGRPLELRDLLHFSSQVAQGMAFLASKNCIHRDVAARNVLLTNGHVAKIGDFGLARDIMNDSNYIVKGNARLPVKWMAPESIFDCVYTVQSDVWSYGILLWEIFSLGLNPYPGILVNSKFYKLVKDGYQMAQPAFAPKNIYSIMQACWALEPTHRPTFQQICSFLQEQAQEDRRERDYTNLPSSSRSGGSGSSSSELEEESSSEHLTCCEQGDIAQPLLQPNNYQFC
The assay can be described thus: In vitro kinase assay for colony stimulating factor-1 receptor (AlphaScreen). The following applies: tested at about 1 μM, read-out: CSF-1R percent inhibition. Format: biochemical. In short, it runs like this: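 Kinase reaction used 4 nM recombinant cytoplasmic domain at 1 μM ATP in 50 mM Hepes pH 7.5 with 5 mM MgCl2, 10 mM MnCl2, 0.1% BSA, 1.0 mM DTT and 0.01% Tween 80. Compounds were serially diluted 3-fold from 25 μM. Phosphopeptide was detected by AlphaScreen, PT66 anti-phosphotyrosine acceptor plus streptavidin donor beads, read after overnight incubation.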
(In general: In Alpha technology, singlet oxygen from a donor bead excites a nearby acceptor bead.)

For assay [2], the system named is MNFS60 (murine AML cells). In words: Cell viability assay in MCSF dependent MNFS60 cells (Cell Titer Glo). Format: cell-based. The following applies: Mus musculus, tested at about 1 μM, read-out: M-NFS-60 CP percent inhibition. The procedure, abridged: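 Three-fold serial compound dilutions, prepared in DMSO at 500× the final level, were applied alongside MCSF (final 10 ng/ml). Incubation lasted 72 hrs (37° C., 5% CO2) before CellTiter-Glo addition. Triplicate points were curve-fitted for EC50.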
(In general: ATP-based viability assays read luminescence as a measure of living cells.)

In another assay the target is T3, kinase domain of PDGFRβ (Homo sapiens, UniProt P09619).
T3 construct: The kinase domain of PDGFRβ was assayed in 50 mM Hepes; purchased Invitrogen P3082
T3 sequence (P09619 600-962 limits assumed): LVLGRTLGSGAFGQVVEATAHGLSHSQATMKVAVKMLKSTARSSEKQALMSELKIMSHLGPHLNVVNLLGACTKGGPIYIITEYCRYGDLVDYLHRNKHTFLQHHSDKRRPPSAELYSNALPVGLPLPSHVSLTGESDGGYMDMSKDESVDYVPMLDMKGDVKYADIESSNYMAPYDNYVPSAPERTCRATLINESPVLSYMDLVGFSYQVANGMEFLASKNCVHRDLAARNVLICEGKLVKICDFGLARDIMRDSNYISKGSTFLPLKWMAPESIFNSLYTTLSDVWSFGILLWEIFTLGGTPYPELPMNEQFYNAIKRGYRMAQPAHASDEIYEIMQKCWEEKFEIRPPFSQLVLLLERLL
The assay can be described thus: Inhibition of PDGFRb kinase signaling in an in vitro biochemical assay (alphascreen). Conditions: tested at about 1 μM, read-out: PDGFRβ percent inhibition.

Assay [3] deals with T4, full-length human CSF-1R receptor (Homo sapiens, UniProt P07333).
T4 construct: transfected with the full-length human CSF-1R receptor cloned in house; expressed in transfected cells; host or cells: HEK293H (Invitrogen Cat. #11631017)
T4 sequence (P07333 20-972): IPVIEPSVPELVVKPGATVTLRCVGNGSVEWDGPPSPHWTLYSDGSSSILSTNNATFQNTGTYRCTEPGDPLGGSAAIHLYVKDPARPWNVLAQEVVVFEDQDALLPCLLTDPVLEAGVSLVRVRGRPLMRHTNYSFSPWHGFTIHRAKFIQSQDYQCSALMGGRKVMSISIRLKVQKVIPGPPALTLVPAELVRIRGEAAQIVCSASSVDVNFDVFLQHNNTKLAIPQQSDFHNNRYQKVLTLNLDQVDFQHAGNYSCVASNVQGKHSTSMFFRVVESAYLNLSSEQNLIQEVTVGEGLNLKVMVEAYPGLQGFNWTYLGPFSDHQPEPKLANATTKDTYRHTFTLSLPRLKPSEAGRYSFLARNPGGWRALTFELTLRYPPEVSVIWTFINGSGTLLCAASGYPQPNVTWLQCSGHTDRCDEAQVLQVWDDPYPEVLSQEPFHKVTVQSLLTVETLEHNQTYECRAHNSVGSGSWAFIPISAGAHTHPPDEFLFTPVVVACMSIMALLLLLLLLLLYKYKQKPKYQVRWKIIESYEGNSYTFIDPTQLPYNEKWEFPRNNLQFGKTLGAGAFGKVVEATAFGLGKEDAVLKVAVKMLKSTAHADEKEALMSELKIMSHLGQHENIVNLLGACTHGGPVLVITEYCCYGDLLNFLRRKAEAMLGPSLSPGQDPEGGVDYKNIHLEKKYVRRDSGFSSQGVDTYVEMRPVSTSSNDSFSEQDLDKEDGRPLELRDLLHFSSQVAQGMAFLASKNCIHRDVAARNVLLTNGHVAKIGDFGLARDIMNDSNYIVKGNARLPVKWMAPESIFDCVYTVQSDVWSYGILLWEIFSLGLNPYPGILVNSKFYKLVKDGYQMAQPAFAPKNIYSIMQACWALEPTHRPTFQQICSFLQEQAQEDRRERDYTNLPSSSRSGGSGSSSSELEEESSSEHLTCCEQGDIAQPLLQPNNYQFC
In words: In vitro inhibition of CSF-1R receptor tyrosine phosphorylation in transfected HEK293H cells stimulated with MCSF. Format: cell-based. Conditions: HEK293-H, tested at about 1 μM, read-out: pCSF1R percent inhibition. As to the method: The lysate was then transferred to total CSF-1R antibody coated 96-well plates that had already been blocked with 3% Blocker A from Mesoscale discovery (MSD) for 2 hours and washed afterwards. Lysates were incubated overnight at 4° C. and the plates were then washed 4× with MSD Tris Wash Buffer. […] The plates were read on the Sector 6000 instrument (MSD). Raw data was imported in Abase and EC50s calculated with XL-fit data analysis software.

Where two headings read alike, the source gives them in different places.

T1 sequence (P10721 589-937 limits assumed): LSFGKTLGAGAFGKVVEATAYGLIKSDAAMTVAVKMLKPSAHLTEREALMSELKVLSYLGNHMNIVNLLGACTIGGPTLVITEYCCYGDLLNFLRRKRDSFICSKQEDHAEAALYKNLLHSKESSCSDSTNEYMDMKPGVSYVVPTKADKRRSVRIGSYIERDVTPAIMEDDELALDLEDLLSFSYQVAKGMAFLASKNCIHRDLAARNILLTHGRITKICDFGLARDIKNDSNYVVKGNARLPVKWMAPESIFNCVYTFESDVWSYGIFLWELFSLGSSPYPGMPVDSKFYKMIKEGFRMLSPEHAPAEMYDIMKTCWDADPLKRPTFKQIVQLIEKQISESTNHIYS

What is called inhibition is how much of the control response was suppressed. `CNC(=O)c1cc(Oc2ccc3nc(NCC4CCCCCC4)sc3c2)ccn1` [Compound 148, 4-[2-(Cycloheptylmethyl-amino)-benzothiazol-6-yloxy]-pyridine-2-carboxylic acid methylamide]: the inhibition at 1 µM is 99% at kinase domain of cKIT; 99% in assay [1]; 100% in assay [2] (MNFS60 cells); 100% on kinase domain of PDGFRβ; 98% in assay [3] (HEK293H cells).

`CNC(=O)c1cc(Oc2ccc3nc(NC[C@@H](O)c4ccccc4)sc3c2)ccn1` [Compound 145]: the inhibition at 1 µM on kinase domain of cKIT (compounds of Table 3) worked out at 39%; in assay [1] (compounds of Table 3), 100%; in assay [2] (compounds of Table 3), 58%; at kinase domain of PDGFRβ (compounds of Table 3), 33%; in assay [3] (compounds of Table 3), 86%.

Take `CNC(=O)c1cc(Oc2ccc3nc(N[C@H]4CCCN(S(=O)(=O)C5CC5)C4)sc3c2)ccn1` [Example 367, (S)-4-(2-(1-(cyclopropylsulfonyl)piperidin-3-ylamino)benzo[d]thiazol-6-yloxy)-N-methylpicolinamide]: the inhibition at 1 µM is 13% on kinase domain of cKIT; 100% in assay [1]; 81% in assay [2] (MCSF dependent MNFS60 cells); 7% at kinase domain of PDGFRβ; 89% in assay [3] (HEK293H cells).

Turning to `c1cc(Oc2ccc3nc(NCC4CCCCC4)sc3c2)cc(-c2cn[nH]c2)n1` [Example 341, 6-(2-(1H-pyrazol-4-yl)pyridin-4-yloxy)-N-(cyclohexylmethyl)benzo[d] thiazol-2-amine], the inhibition at 1 µM at kinase domain of cKIT worked out at 99%; in assay [1], 100%; in assay [2] (MCSF dependent MNFS60 cells), 99%; on kinase domain of PDGFRβ it was 88%; in assay [3] (HEK293H cells), 96%.

As for `CNC(=O)c1cc(Oc2ccc3nc(NCc4ccccn4)sc3c2)ccn1` [Compound 150, 4-{2-[(Pyridin-2-ylmethyl)-amino]-benzothiazol-6-yloxy}-pyridine-2-carboxylic acid methylamide], the inhibition at 1 µM was 34% on kinase domain of cKIT; 99% in assay [1]; 49% in assay [2] (MNFS60 cells); 1% on kinase domain of PDGFRβ; 87% in assay [3] (HEK293H cells).

As for `CNC(=O)c1cc(Oc2ccc3nc(N[C@H](CO)C4CCCCC4)oc3c2)ccn1` [Compound 66, 4-[2-((S)-1-Cyclohexyl-02-hydroxy-ethylamino)-benzo-oxazol-6-yloxy]-pyridine-2-carboxylic acid methylamide], the inhibition at 1 µM at kinase domain of cKIT worked out at 55%; in assay [1] it was 100%; in assay [2] (MNFS60 cells), 18%; on kinase domain of PDGFRβ it was 37%; in assay [3] (HEK293H cells), 37%.

`CNC(=O)c1cc(Oc2ccc3nc(NCc4cccc5c4OCCO5)oc3c2)ccn1` [Compound 65, 4-{2-[(2,3-Dihydro-benzo-[1,4]dioxin-5-ylmethyl)-amino]-benzooxazol-6-yloxy}-pyridine-2-carboxylic acid methylamide]: the inhibition at 1 µM on kinase domain of cKIT amounted to 98%; in assay [1], 99%; in assay [2] (MNFS60 cells), 100%; at kinase domain of PDGFRβ it was 38%; in assay [3] (HEK293H cells), 97%.

As for `Cc1c[nH]c(-c2cc(Oc3ccc4nc(N[C@@H](C)C5CCCCC5)sc4c3)ccn2)n1` [Example 268, (S)-N-(1-cyclohexylethyl)-6-(2-(4-methyl-1H-imidazol-2-yl)pyridin-4-yloxy)benzo[d]thiazol-2-amine], the inhibition at 1 µM on kinase domain of cKIT (compounds of Table 3) was found to be 25%; in assay [1] (compounds of Table 3), 100%; in assay [2] (compounds of Table 3), 84%; on kinase domain of PDGFRβ (compounds of Table 3), 29%; in assay [3] (compounds of Table 3) it was 87%.

The values are drawn from patent publication US8173689B2 (Novartis AG, priority 2006, dated 2012).
